What was measured:
[1] = Comparative studies: solubilization of prior-art ascorbic acid compositions; format: physicochemical; details: ascorbic acid together with urea in propylene glycol, butylene glycol and propanediol
Experimental: This example was reproduced.
All mixtures were heated to 85° C.

[2] = Solubilization of ascorbic acid with urea as co-solvent (recrystallization); format: physicochemical; details: in 1,3 propanediol
Description: Maximum saturation level experiments
Next, concentrations of ascorbic acid beyond the aforementioned maximum concentration are solubilized, using urea as a co-solvent.

[3] = Solubility of optional additional components in polyol solvents; format: physicochemical
Description: Additional ingredients were chosen for their compatibility with (e.g., miscibility in) 1,3 propanediol, 1,2 propanediol, and/or 1,3 butanediol.

[4] = concentrations of 0.2%; cited from earlier work
[5] = use of 4% HQ or 5% Vitamin C; cited from earlier work
[6] = cream containing 10% MAP; cited from earlier work

## NC(N)=O [U, urea]
[1]
  maximum concentrations soluble before urea itself starts to precipitate: 20%
[2]
  minimum amount U required to solubilize 20% AA: ~10%
  solubility of U (saturation reached before recrystallization of U): ~ 27.8%

## O=C(O)CCCCCCCC(=O)O [AzA, Azelaic acid]
[3]; in 1,3 propanediol
  concentration of AzA that can be solubilized: up to 10%
  effect of hydroxyethyl urea on solubility of AzA: slightly increased
[3]; with 10% Ascorbic Acid (AA), 5% Urea in 1,3 propanediol solvent base
  AzA solubilized together with ascorbic acid and urea: 7.5%

## CC1(C)[C@@H](O[C@H]2O[C@H](C(=O)O)[C@@H](O)[C@H](O)[C@H]2O[C@@H]2O[C@H](C(=O)O)[C@@H](O)[C@H](O)[C@H]2O)CC[C@]2(C)[C@H]3C(=O)C=C4[C@@H]5C[C@@](C)(C(=O)O)CC[C@]5(C)CC[C@@]4(C)[C@]3(C)CC[C@@H]12 [glycyrrhizic acid, Glycyrrhizic acid]
[3]; in 1,3-propanediol
  solubility: shows solubility

## Madecassoside
[4]
  reduction of erythema (skin redness): desirable ability to reduce erythema
[3]; at 0.2% in 1,3 propanediol, 1,2 propanediol and 1,3 butanediol
  solubility: soluble

## O=C1O[C@H]([C@@H](O)CO)C(O)=C1O [AA, L-ascorbic acid]
[5]
  improvement: 62.5%

## Oc1ccc(O)cc1 [HQ, hydroquinone]
[5]
  improvement: 93%
  side-effects: 68.7%

## O=C1O[C@H]([C@@H](O)CO)C([O-])=C1OP(=O)([O-])[O-].O=C1O[C@H]([C@@H](O)CO)C([O-])=C1OP(=O)([O-])[O-].[Mg+2].[Mg+2].[Mg+2] [MAP, magnesium ascorbyl phosphate]
[6]
  brightening/lightening of the appearance of the skin: effectively brighten/lighten the appearance of the skin

## COc1cc(CC(C(C)=O)C(C)=O)ccc1O [Acetyl zingerone]
[3]; at 0.5-1% in 1,3 propanediol, 1,2 propanediol and 1,3 butanediol
  solubility: readily soluble

— patent publication US20230149282A1, “High-Potency Vitamin C Chemical Peeling Solutions” (Baek Clinical Inc., priority 2020, published 2023)
